Reference: US6583309B1 (University of Medicine and Dentistry of New Jersey, priority 1999, dated 2003)

molecular target: TAR RNA; assay: In vitro binding of resin-bound compounds to TAR RNA (OD260 of unbound RNA); set-up: species or system HIV; conditions: in vitro assay; compounds of formula I on TentaGel beads incubated with TAR RNA overnight at 4° C. in TK buffer; read-out: Kd (nM), binding constants
Method: Binding of compounds of formula I and V to TAR RNA was measured by evaluating their inhibition of TAR-TAT complex formation in the presence of increasing levels of the compound to be tested. The compounds of formula I were tested in an in vitro assay; the compounds of formula V were tested in an in vivo assay.
The TAR RNA used corresponds to the minimal sequence required for TAT responsiveness in vivo. This 29-residue oligonucleotide has the sequence: 5′-[…]-3′ (SEQ ID NO.: 1). TAR RNA was prepared by in vitro transcription. A “top strand” single-stranded DNA oligomer having the sequence 5′-TAATACGACTCACTATAG-3′ (SEQ ID NO.: 2) was annealed to a “bottom strand” single-stranded DNA template having the following sequence: 3′-[…]-5′ (SEQ ID NO.: 3), thereby generating a double-stranded region corresponding to a promoter sequence recognized by T7 RNA polymerase. Transcription was carried out in transcription buffer (40 mM Tris-HCl, pH 8.1, 1 mM spermidine, 0.01% Triton®X-100, 5 mM dithiothreitol, 4 mM each of ATP, GTP, CTP, and UTP at 37° C. for 4 to 5 hours. Reactions were performed in a volume of 0.02 ml containing 8 pmole of template (top strand annealed to bottom strand) and 40 to 60 units of T7 RNA polymerase. Transcription was terminated by adding an equal volume of loading buffer (9M urea, 1 mmol EDTA, 0.1M bromophenol blue in 1XTBE buffer; TBE is 45 mmol trisborate at pH 8). Product RNA was purified by electrophoresis through a denaturing 20% polyacrylamide gel containing 8M urea. RNA was extracted from the gel, precipitated, dissolved in dithylpyrocarbonate-treated water, and stored at −20° C. until used.
In vitro assay conditions: Compounds AA-DU were synthesized on TentaGel S—NH2 (4.6 mmole). All Fmoc-amino acids were purchased from Bachem (Torrance, Calif.). 1-hydroxybenzotriazole (HOBT) and diisopropylcarbodiimide (DIPCDI) were obtained from Aldrich Chemical Co., Milwalkee, Wis. Piperidine and trifluoroacetic acid were purchased from Applied Biosystems Division, Perkin-Elmer. Compounds AA-DU were synthesized manually according to standard solid-phase peptide synthesis protocols. Coupling efficiencies of residues at each step were monitored by Kaiser test. Deprotection of trimer peptides was carried out in 10% water in trifluoroacetic acid (1 mL) for 16 hours at room temperature. After filtration of solvents, the resin was washed with water (1 mL×4), DMF (1 mL×4), dichloromethane (1 mL×4), and dried under reduced pressure. The compounds attached to the resin (10 beads) were placed in an Eppendorf tube and washed with TK buffer ([…]). The beads were suspended in TK buffer ([…]) and incubated with TAR RNA ([…]) overnight at 4° C. The suspension was centrifuged and the supernatant containing unbound RNA was transferred to a cuvette for OD260 measurements. The UV absorbance was measured by a Shimadzu UV-1601 spectrometer. Equilibrium concentrations of RNA were determined from these measurements. Given that the initial concentrations of ligand and RNA are known, and assuming simple bimolecular receptor/substrate binding, dissociation constant (KD) was calculated from straightforward equations.

Kd [nM] | Structure (SMILES)
147 | NCCCC[C@H](COC(N)=O)NC(=O)CN(CCCCN)C(=O)[C@@H](N)CCCCN [Compound AU, Carbamic acid 6-amino-2-{2-[(4-amino-butyl)-(2,6-diamino-hexanoyl)-amino]-acetylamino}-hexyl ester]
325 | NCCCC[C@H](COC(N)=O)NC(=O)CN(CCCCN)C(=O)[C@H](N)CCCCN [Compound AV, Carbamic acid 6-amino-2-{2-[(4-amino-butyl)-(2,6-diamino-hexanoyl)-amino]-acetylamino}-hexyl ester]
165 | NCCCCCCCNCC(=O)N(CCCCN)CC(=O)N[C@H](CCCCN)COC(N)=O [Compound AX, Carbamic acid 6-amino-2-(2-{(4-amino-butyl)-[2-(7-amino-heptylamino)-acetyl]-amino}-acetylamino)-hexyl ester]
403 | NCCCCNCC(=O)N(CCCCN)CC(=O)N[C@H](CCCCN)COC(N)=O [Compound AY, Carbamic acid 6-amino-2-(2-{(4-amino-butyl)-[2-(4-amino-butylamino)-acetyl]-amino}-acetylamino)-hexyl ester]
147 | N=C(N)NCCC[C@H](N)COC(=O)N(CCCCN)CC(=O)N[C@H](CCCCN)COC(N)=O [Compound AZ, Carbamic acid 6-amino-2-{2-[(4-amino-butyl)-(2-amino-5-guanidino-pentyloxycarbonyl)-amino]-acetylamino}-hexyl ester]
256 | NCCCCCN(CC(=O)N[C@H](CCCCN)COC(N)=O)C(=O)OC[C@@H](N)CCCCN [Compound BB, Carbamic acid 6-amino-2-{2-[(5-amino-pentyl)-(2,6-diamino-hexyloxycarbonyl)-amino]-acetylamino}-hexyl ester]
235 | NCCCCCN(CC(=O)N[C@H](CCCCN)COC(N)=O)C(=O)[C@@H](N)CCCCN [Compound BD, Carbamic acid 6-amino-2-{2-[(5-amino-pentyl)-(2,6-diamino-hexanoyl)-amino]-acetylamino}-hexyl ester]
678 | NCCCCCN(CC(=O)N[C@H](CCCCN)COC(N)=O)C(=O)[C@H](N)CCCCN [Compound BE, Carbamic acid 6-amino-2-{2-[(5-amino-pentyl)-(2,6-diamino-hexanoyl)-amino]-acetylamino}-hexyl ester]
147 | NCCCCCNCC(=O)N(CCCCCN)CC(=O)N[C@H](CCCCN)COC(N)=O [Compound BF, Carbamic acid 6-amino-2-(2-{(5-amino-pentyl)-[2-(5-amino-pentylamino)-acetyl]-amino}-acetylamino)-hexyl ester]
431 | NCCCCCCCNCC(=O)N(CCCCCN)CC(=O)N[C@H](CCCCN)COC(N)=O [Compound BG, Carbamic acid 6-amino-2-{2-[[2-(7-amino-heptylamino)-acetyl]-(5-amino-pentyl)-amino]-acetylamino}-hexyl ester]
2530 | NCCCCCN(CC(=O)N[C@H](CCCCN)COC(N)=O)C(=O)CNCCCCN [Compound BH, Carbamic acid 6-amino-2-{2-[[2-(4-amino-butylamino)-acetyl]-(5-amino-pentyl)-amino]-acetylamino}-hexyl ester]
202 | N=C(N)NCCC[C@H](N)COC(=O)N(CCCCCN)CC(=O)N[C@H](CCCCN)COC(N)=O [Compound BI, Carbamic acid 6-amino-2-{2-[(2-amino-5guanidino-pentyloxycarbonyl)-(5-amino-pentyl)-amino]-acetylamino}-hexyl ester]
930 | NCCCCCCCN(CC(=O)N[C@H](CCCCN)COC(N)=O)C(=O)OC[C@@H](N)CCCCN [Compound BK, Carbamic acid 6-amino-2-{2-[(7-amino-heptyl)-(2,6-diamino-hexyloxycarbonyl)-amino]-acetylamino}-hexyl ester]
718 | NCCCCCCCN(CC(=O)N[C@H](CCCCN)COC(N)=O)C(=O)OC[C@H](N)CCCCN [Compound BL, Carbamic acid 6-amino-2-{2-[(7-amino-heptyl)-(2,6-diamino-hexyloxycarbonyl)-amino]-acetylamino}-hexyl ester]
403 | NCCCCCCCN(CC(=O)N[C@H](CCCCN)COC(N)=O)C(=O)[C@@H](N)CCCCN [Compound BM, Carbamic acid 6-amino-2-{2-[(7-amino-heptyl)-(2,6-diamino-hexanoyl)-amino]-acetylamino}-hexyl ester]
3150 | NCCCCCCCN(CC(=O)N[C@H](CCCCN)COC(N)=O)C(=O)[C@H](N)CCCCN [Compound BN, Carbamic acid 6-amino-2-{2-[(7-amino-heptyl)-(2,6-diamino-hexanoyl)-amino]-acetylamino}-hexyl ester]
183 | NCCCCCCCN(CC(=O)N[C@H](CCCCN)COC(N)=O)C(=O)CNCCCCCN [Compound BO, Carbamic acid 6-amino-2-(2-{(7-amino-heptyl)-[2-(5-amino-pentylamino)-acetyl]-amino}-acetylamino)-hexyl ester]
2190 | NCCCCCCCNCC(=O)N(CCCCCCCN)CC(=O)N[C@H](CCCCN)COC(N)=O [Compound BP, Carbamic acid 6-amino-2-(2-{(7-amino-heptyl)-[2-(7-amino-heptylamino)-acetyl]-amino}-acetylamino)-hexyl ester]
235 | NCCCCCCCN(CC(=O)N[C@H](CCCCN)COC(N)=O)C(=O)CNCCCCN [Compound BQ, Carbamic acid 6-amino-2-{2-[[2-(4-amino-butylamino)-acetyl]-(7-amino-heptyl)-amino]-acetylamino}-hexyl ester]
5590 | N=C(N)NCCC[C@H](N)COC(=O)N(CCCCCCCN)CC(=O)N[C@H](CCCCN)COC(N)=O [Compound BR, Carbamic acid 6-amino-2-{2-[(2-amino-5-guanidino-pentyloxycarbonyl)-(7-amino-heptyl)-amino]-acetylamino}-hexyl ester]
1420 | NCCCC[C@@H](N)COC(=O)N[C@@H](CCCCN)C(=O)N[C@H](CCCCN)COC(N)=O [Compound BU, Carbamic acid 6-amino-2-[6-amino-2-(2,6-diamino-hexyloxycarbonylamino)-hexanoylamino]-hexyl ester]
678 | NCCCC[C@H](COC(N)=O)NC(=O)[C@H](CCCCN)NC(=O)[C@H](N)CCCCN [Compound BW, Carbamic acid 6-amino-2-[6-amino-2-(2,6-diamino-hexanoylamino)-hexanoylamino]-hexyl ester]
202 | NCCCCCNCC(=O)N[C@@H](CCCCN)C(=O)N[C@H](CCCCN)COC(N)=O [Compound BX, Carbamic acid 6-amino-2-{6-amino-2-[2-(5-amino-pentylamino)-acetylamino]-hexanoylamino}-hexyl ester]
183 | NCCCCCCCNCC(=O)N[C@@H](CCCCN)C(=O)N[C@H](CCCCN)COC(N)=O [Compound BY, Carbamic acid 6-amino-2-{6-amino-2-[2-(7-amino-heptylamino)-acetylamino]-hexanoylamino}-hexyl ester]
130 | NCCCCNCC(=O)N[C@@H](CCCCN)C(=O)N[C@H](CCCCN)COC(N)=O [Compound BZ, Carbamic acid 6-amino-2-{6-amino-2-[2-(4-amino-butylamino)-acetylamino]-hexanoylamino}-hexyl ester]

Structure (SMILES) | Kd [nM]
NCCCC[C@H](COC(N)=O)NC(=O)CN(CCCCN)C(=O)OC[C@H](N)CCC(N)=O [Compound BA, Carbamic acid 6-amino-2-{2-[(4-amino-butyl)-(2-amino-4-carbamoyl-butoxycarbonyl)-amino]-acetylamino}-hexyl ester] | 460
NCCCCCN(CC(=O)N[C@H](CCCCN)COC(N)=O)C(=O)OC[C@H](N)CCC(N)=O [Compound BJ, Carbamic acid 6-amino-2-{2-[(2-amino-4-carbamoyl-butoxycarbonyl)-(5-amino-pentyl)-amino]-acetylamino}-hexyl ester] | 202
NCCCCCCCN(CC(=O)N[C@H](CCCCN)COC(N)=O)C(=O)OC[C@H](N)CCC(N)=O [Compound BS, Carbamic acid 6-amino-2-{2-[(2-amino-4-carbamoyl-butoxycarbonyl)-(7-amino-heptyl)-amino]-acetylamino}-hexyl ester] | 639
